Test results as given in US10435376B2, “Derivatives of 1H-imidazole-4,5-dicarboxamide and use thereof in preparation of anticoccidial drugs” (GUANGZHOU INSIGHTER BIOTECHNOLOGY CO., LTD., priority 2015, dated 2019).

Experiments:
Type in all cases: in vivo
Eimeria tenella [1] = assay: Inhibitory effects of the derivatives on Eimeria tenella of chicken (60 ppm in feed); conditions: for anticoccidial activity in view of survival rate, bloody stool score and relative weight gain: 60 ppm, E. tenella; for responders at 60 ppm, 60 µg/mL / response vs control in vivo at 60 ppm, 60 µg/mL: Eimeria tenella, 168 h; for responders at 60 ppm, 60 µg/mL / response vs control in vivo at 60 ppm, 60 µg/mL / Score (bloody stool score): broilers, 60 ppm in feed, 250,000 E. tenella oocysts; for responders at 60 ppm, 60 µg/mL: 7 days after inoculation, read-out: Survival rate (%); for response vs control in vivo at 60 ppm, 60 µg/mL: relative to group 1 (not infected, not treated), read-out: Relative weight gain (%); for Score (bloody stool score): 5 days after inoculation
From the text: (§1) One-day-old yellow-feather fast-growing broilers were raised in a coccidia-free environment, and divided into groups for trial at the age of 18 days when no coccidian oocysts were detected by microscopy in their faeceas. Weak or overweight broilers were removed, and healthy broilers were divided into 30 groups with 50 broilers in each group and weight difference between each two broilers was below 20 g. Groups 1 and 2 were respectively a control group that the broilers were neither infected nor treated, and a control group that the broilers were infected but not treated. Groups 3 to 30 were respectively administrated with different derivatives. The broilers were given ad libitum access to feed and water when the feed was added with different medicines according to Table 1 at the day the broilers were divided. 24 Hours after the trial began, 250,000 sporulated Eimeria tenella oocysts were inoculated via an oral gavage into the crop of every broiler in each group except group 1. Bloody stool score was measured 5 days after the inoculation and the trial was ended 7 days after the inoculation. Relative weight gain (%), survival rate (%) and the bloody stool score were evaluated.
(§2) Bloody stool score: 0, no bloody stool was observed; 1, bloody stool below 25%; 2, 25 to 50% of bloody stool; 3, 50 to 75% of bloody stool; and 4, bloody stool over 75%.
(§3) Relative weight gain (%): The broilers were weighed at the beginning and the end of the trial to calculate the average weight gain and relative weigh gain. Relative weight gain=(average weight gain of each group/average weight gain of group 1)×100%.
(§4) Deaths of the broilers: Necropsy was performed and the amount of dead broilers in each group was recorded to calculate the survival rate. Survival rate=(total amount of the broilers in each group−amount of deaths caused by coccidial infection)/total amount of the broilers in each group×100%.

Eimeria tenella [2] = assay: Inhibitory effects of the derivatives of different dosages on Eimeria tenella of chicken; set-up: key to Score (bloody stool score): 0 = no bloody stool to 4 = bloody stool over 75%; conditions: broilers, E. tenella; for Score (bloody stool score): 5 days after inoculation
Description: as §2, §3, §4
as §1, with “divided into 16 groups with” for “divided into 30 groups with”, “3 to 16 were respectively” for “3 to 30 were respectively”, “with different kinds or different dosages of derivatives. The” for “with different derivatives. The”, “to Table 2 at the” for “to Table 1 at the”, “score were evaluated (according to embodiment 2).” for “score were evaluated.”

Eimeria acervulina = assay: Inhibitory effects of the derivatives on Eimeria acervulina of chicken; conditions: for anticoccidial activity in view of survival rate, relative weight gain and feed conversion ratio: 60 ppm, E. acervulina; for responders at 60 ppm, 60 µg/mL / response vs control in vivo at 60 ppm, 60 µg/mL: Eimeria acervulina, 168 h; for responders at 60 ppm, 60 µg/mL / response vs control in vivo at 60 ppm, 60 µg/mL / Feed conversion ratio: broilers, 60 ppm in feed, 400,000 E. acervulina oocysts; for responders at 60 ppm, 60 µg/mL: 7 days after inoculation, read-out: Survival rate (%); for response vs control in vivo at 60 ppm, 60 µg/mL: feed or water, read-out: Relative weight gain (%)
Description: as §3, §4
One-day-old yellow-feather fast-growing broilers were raised in a coccidia-free environment, and divided into groups for trial at the age of 18 days when no coccidian oocysts were detected by microscopy in their faeceas. Weak or overweight broilers were removed, and healthy broilers were divided into 10 groups with 50 broilers in each group and weight difference between each two broilers was below 20 g. Groups 1 and 2 were respectively a control group that the broilers were neither infected nor treated, and a control group that the broilers were infected but not treated. Groups 3 to 10 were respectively administrated with different derivatives. The broilers were given ad libitum access to feed and water when the feed was added with different medicines according to Table 3 at the day the broilers were divided. 24 Hours after the trial began, 400,000 sporulated Eimeria acervulina oocysts were inoculated via an oral gavage into the crop of every broiler in each group except group 1. The trial was ended 7 days after the inoculation. Relative weight gain (%), survival rate (%) and feed conversion ratio were evaluated.

Eimeria necatrix = assay: Inhibitory effects of the derivatives on Eimeria necatrix of chicken; conditions: for anticoccidial activity in view of survival rate, bloody stool score and relative weight gain: 60 ppm, E. necatrix; for responders at 60 ppm, 60 µg/mL / response vs control in vivo at 60 ppm, 60 µg/mL: Eimeria necatrix, 168 h; for responders at 60 ppm, 60 µg/mL: read-out: Survival rate (%); for response vs control in vivo at 60 ppm, 60 µg/mL: feed or water, read-out: Relative weight gain (%); for response vs control in vivo at 60 ppm, 60 µg/mL / Score (bloody stool score): broilers, 60 ppm in feed, 100,000 E. necatrix oocysts; for Score (bloody stool score): 5 days after inoculation
Description: as §2, §3, §4
as §1, with “into 10” for “into 30”, “to 10” for “to 30”, “Table 4” for “Table 1”, “began, 100,000” for “began, 250,000”, “Eimeria necatrix” for “Eimeria tenella”, “were evaluated (according to embodiment 2).” for “were evaluated.”

Structure (SMILES)	anticoccidial activity in view of survival rate, bloody stool score and relative weight gain (Eimeria tenella [1])	responders at 60 ppm, 60 µg/mL (Eimeria tenella [1]) [%]	response vs control in vivo at 60 ppm, 60 µg/mL (Eimeria tenella [1]) [%]	Score (bloody stool score) (Eimeria tenella [1])	Relative weight gain (%) (Eimeria tenella [2]; 5 ppm in feed)	Survival rate (%) (Eimeria tenella [2]; 5 ppm in feed)	Score (bloody stool score) (Eimeria tenella [2]; 5 ppm in feed)	Relative weight gain (%) (Eimeria tenella [2]; 10 ppm in feed)	Survival rate (%) (Eimeria tenella [2]; 10 ppm in feed)	Score (bloody stool score) (Eimeria tenella [2]; 10 ppm in feed)	Relative weight gain (%) (Eimeria tenella [2]; 20 ppm in feed)	Survival rate (%) (Eimeria tenella [2]; 20 ppm in feed)	anticoccidial activity in view of survival rate, relative weight gain and feed conversion ratio (Eimeria acervulina)	responders at 60 ppm, 60 µg/mL (Eimeria acervulina) [%]	response vs control in vivo at 60 ppm, 60 µg/mL (Eimeria acervulina) [%]	Feed conversion ratio (Eimeria acervulina)	anticoccidial activity in view of survival rate, bloody stool score and relative weight gain (Eimeria necatrix)	responders at 60 ppm, 60 µg/mL (Eimeria necatrix) [%]	response vs control in vivo at 60 ppm, 60 µg/mL (Eimeria necatrix) [%]	Score (bloody stool score) (Eimeria necatrix)	also measured
NC(=O)c1ncn(Cc2c(F)cccc2Cl)c1C(N)=O [IST15031, 1-(2-chloro-6-fluorobenzyl)-1H-imidazole-4,5-dicarboxamide]	highest anticoccidial activities	100	95.8	1 (bloody stool below 25%)	67.8	76	4 (bloody stool over 75%)	72.3	88	4 (bloody stool over 75%)	79.8	100	highest anticoccidial activities	100	94.8	2.179	highest anticoccidial activities	100	92.5	1 (bloody stool below 25%)	Score (bloody stool score) (Eimeria tenella [2]; 20 ppm in feed): 2 (25 to 50% of bloody stool); Relative weight gain (%) (Eimeria tenella [2]; 50 ppm in feed): 90.5%; Survival rate (%) (Eimeria tenella [2]; 50 ppm in feed): 100%; Score (bloody stool score) (Eimeria tenella [2]; 50 ppm in feed): 1 (bloody stool below 25%); Relative weight gain (%) (Eimeria tenella [2]; 100 ppm in feed): 98.9%; Survival rate (%) (Eimeria tenella [2]; 100 ppm in feed): 100%; Score (bloody stool score) (Eimeria tenella [2]; 100 ppm in feed): 0; Relative weight gain (%) (Eimeria tenella [2]; 200 ppm in feed): 102.5%; Survival rate (%) (Eimeria tenella [2]; 200 ppm in feed): 100%; Score (bloody stool score) (Eimeria tenella [2]; 200 ppm in feed): 0; Relative weight gain (%) (Eimeria tenella [2]; 500 ppm in feed): 100.4%; Survival rate (%) (Eimeria tenella [2]; 500 ppm in feed): 100%; Score (bloody stool score) (Eimeria tenella [2]; 500 ppm in feed): 0
NC(=O)c1ncn(Cc2ccc(C(F)(F)F)cc2)c1C(N)=O [IST15051, 1-(4-(trifluromethyl)benzyl)-1H-imidazole-4,5-dicarboxamide]	highest anticoccidial activities	100	101	0	80.4	96	4 (bloody stool over 75%)	88.6	100	2 (25 to 50% of bloody stool)	95.9	100	highest anticoccidial activities	100	102	2.109	highest anticoccidial activities	100	99.5	0	Score (bloody stool score) (Eimeria tenella [2]; 20 ppm in feed): 0; Relative weight gain (%) (Eimeria tenella [2]; 50 ppm in feed): 98.7%; Survival rate (%) (Eimeria tenella [2]; 50 ppm in feed): 100%; Score (bloody stool score) (Eimeria tenella [2]; 50 ppm in feed): 0; Relative weight gain (%) (Eimeria tenella [2]; 100 ppm in feed): 101.2%; Survival rate (%) (Eimeria tenella [2]; 100 ppm in feed): 100%; Score (bloody stool score) (Eimeria tenella [2]; 100 ppm in feed): 0; Relative weight gain (%) (Eimeria tenella [2]; 200 ppm in feed): 99.4%; Survival rate (%) (Eimeria tenella [2]; 200 ppm in feed): 100%; Score (bloody stool score) (Eimeria tenella [2]; 200 ppm in feed): 0; Relative weight gain (%) (Eimeria tenella [2]; 500 ppm in feed): 103.6%; Survival rate (%) (Eimeria tenella [2]; 500 ppm in feed): 100%; Score (bloody stool score) (Eimeria tenella [2]; 500 ppm in feed): 0
NC(=O)c1ncn(Cc2ccc([N+](=O)[O-])cc2)c1C(N)=O [IST15045, 1-(4-nitrobenzyl)-1H-imidazole-4,5-dicarboxamide]	highest anticoccidial activities	100	104	0									highest anticoccidial activities	100	98.7	2.158	highest anticoccidial activities	100	102	0	
CCCn1cnc(C(N)=O)c1C(N)=O [IST15038, 1-propyl-1H-imidazole-4,5-dicarboxamide]		100	82.1	3 (50 to 75% of bloody stool)										100	73.8	2.135		100	79.5	2 (25 to 50% of bloody stool)	
